Measured values from US11541056B2, “3-hydroxy-N-(3-(7H-pyrrolo[2,3-d]pyrimidin-4-yl)phenyl)pyrrolidine-1-carboxamide derivatives” (NOVARTIS AG, priority 2018, dated 2023).

Experiments:
[1] = molecular target: T1, BTK-GFP (Homo sapiens, UniProt Q06187+Q96SW2); assay: BTK-GFP protein abundance flow cytometry assay in HEK293A cells; format: cell-based; settings: 24 h; for BTK deg Amax %: % protein remaining at concentration of maximum degradation; for DC50: concentration at which 50% maximal degradation was observed
T1 construct: the BTK open reading frame (ORF) was first shuttled from a pcDNA-DEST40-BTK vector (Invitrogen library ID INV_20090504v1); expressed in transfected cells; host or cells: HEK293A cells (Invitrogen R70507), lentiviral transduction with pLenti6-BTK-GFP-Ires-RFP, blasticidin-selected
T1 sequence (Q06187 whole entry): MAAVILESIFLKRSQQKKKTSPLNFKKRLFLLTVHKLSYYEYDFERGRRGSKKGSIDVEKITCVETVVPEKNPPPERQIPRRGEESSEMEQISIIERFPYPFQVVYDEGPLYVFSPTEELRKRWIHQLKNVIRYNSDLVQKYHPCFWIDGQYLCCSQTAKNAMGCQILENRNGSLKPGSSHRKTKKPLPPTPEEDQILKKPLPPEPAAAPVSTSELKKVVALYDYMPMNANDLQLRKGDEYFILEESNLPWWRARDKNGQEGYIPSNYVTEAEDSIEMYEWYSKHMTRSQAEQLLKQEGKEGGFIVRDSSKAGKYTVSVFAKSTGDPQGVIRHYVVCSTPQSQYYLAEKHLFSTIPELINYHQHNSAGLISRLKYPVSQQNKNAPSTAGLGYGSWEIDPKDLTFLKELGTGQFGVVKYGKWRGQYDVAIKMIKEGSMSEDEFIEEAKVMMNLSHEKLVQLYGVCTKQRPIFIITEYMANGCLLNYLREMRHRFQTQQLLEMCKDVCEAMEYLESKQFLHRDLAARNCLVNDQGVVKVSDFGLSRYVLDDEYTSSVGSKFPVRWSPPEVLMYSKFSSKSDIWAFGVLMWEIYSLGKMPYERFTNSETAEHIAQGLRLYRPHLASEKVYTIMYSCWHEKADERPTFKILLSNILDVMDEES
T1 sequence (Q96SW2 whole entry): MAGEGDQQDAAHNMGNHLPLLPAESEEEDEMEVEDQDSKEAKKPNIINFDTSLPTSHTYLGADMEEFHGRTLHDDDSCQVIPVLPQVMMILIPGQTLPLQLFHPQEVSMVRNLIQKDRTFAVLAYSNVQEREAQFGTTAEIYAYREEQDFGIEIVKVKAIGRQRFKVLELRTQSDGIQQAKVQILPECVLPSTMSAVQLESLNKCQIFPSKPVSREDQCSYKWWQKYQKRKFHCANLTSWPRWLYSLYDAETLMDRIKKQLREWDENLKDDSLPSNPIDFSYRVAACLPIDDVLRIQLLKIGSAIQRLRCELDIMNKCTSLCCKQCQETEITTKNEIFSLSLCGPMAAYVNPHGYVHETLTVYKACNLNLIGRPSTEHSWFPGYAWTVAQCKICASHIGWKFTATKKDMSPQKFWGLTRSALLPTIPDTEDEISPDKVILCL
T1 sequence (Q16531 whole entry partner): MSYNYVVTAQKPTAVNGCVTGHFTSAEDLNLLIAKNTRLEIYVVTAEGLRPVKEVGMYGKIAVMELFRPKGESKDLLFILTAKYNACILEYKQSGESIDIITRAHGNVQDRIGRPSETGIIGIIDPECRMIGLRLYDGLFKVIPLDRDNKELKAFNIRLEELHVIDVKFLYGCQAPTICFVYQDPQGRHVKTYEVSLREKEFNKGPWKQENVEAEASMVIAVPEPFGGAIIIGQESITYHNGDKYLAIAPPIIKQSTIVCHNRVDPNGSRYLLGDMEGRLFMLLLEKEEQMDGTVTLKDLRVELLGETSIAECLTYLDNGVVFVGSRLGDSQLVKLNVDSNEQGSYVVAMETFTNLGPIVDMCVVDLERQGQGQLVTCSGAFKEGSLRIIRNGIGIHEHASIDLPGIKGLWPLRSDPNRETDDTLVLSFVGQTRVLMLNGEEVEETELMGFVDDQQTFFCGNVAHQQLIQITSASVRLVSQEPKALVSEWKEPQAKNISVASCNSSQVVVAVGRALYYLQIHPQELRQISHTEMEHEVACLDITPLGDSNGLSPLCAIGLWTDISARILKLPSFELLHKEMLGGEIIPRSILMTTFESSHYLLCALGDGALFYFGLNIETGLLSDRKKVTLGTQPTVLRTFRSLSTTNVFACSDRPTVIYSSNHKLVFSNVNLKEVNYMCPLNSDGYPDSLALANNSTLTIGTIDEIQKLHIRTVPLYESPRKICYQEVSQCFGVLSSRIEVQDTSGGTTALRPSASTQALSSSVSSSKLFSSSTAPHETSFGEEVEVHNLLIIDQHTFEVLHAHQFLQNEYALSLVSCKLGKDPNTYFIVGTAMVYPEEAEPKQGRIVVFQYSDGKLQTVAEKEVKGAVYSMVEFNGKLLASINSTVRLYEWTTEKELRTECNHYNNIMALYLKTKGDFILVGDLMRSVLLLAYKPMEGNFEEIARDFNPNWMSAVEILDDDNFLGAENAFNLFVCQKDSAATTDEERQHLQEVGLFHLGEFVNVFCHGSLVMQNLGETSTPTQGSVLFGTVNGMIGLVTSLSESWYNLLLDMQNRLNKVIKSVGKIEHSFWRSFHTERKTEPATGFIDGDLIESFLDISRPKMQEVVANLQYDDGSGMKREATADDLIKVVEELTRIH
Protocol: Compounds of the invention were tested in the following cellular assays. The terms in Table 1 are defined as follows: DC50 refers to the concentration at which 50% maximal degradation was observed; deg Amax is the extent of degradation and the value refers to the % protein remaining at the concentration at which maximum degradation is seen; Prol GI50 refers to the proliferation data and defines the concentration at which 50% growth inhibition was observed compared to the vehicle treated control at the end of the incubation time. TMD8 cells are BTK dependent and OCI-LY3 cells are BTK independent.
(§1) BTK-GFP and IKZF3-GFP Protein Abundance Flow Cytometry Assay in HEK293A Cells:
(§2) Degradation of BTK or IKZF3 was measured in HEK293A cells (Invitrogen R70507) expressing either BTK-GFP and RFP or IKZF3-GFP and RFP from a stably integrated bicistronic BTK-GFP-iresRFP or IKZF3-GFP-iresRFP construct, respectively. Reduction of the GFP signal measured by flow cytometry served as readout for BTK or IKZF3 degradation after degrader treatment.
(§3) Stable HEK293A-BTK-GFP-iresRFP cells were maintained in complete growth medium (DMEM high Glucose+10% FCS+1% L-Glutamine+1% NEAA+1% NaPyr.) with passaging performed twice per week. On Day 0, HEK293A-BTK-GFP-iresRFP or HEK293A-IKZF3-GFP-iresRFP and HEK293A-iresRFP cells were seeded at 10,000 cells/well in a 96-well microtiter plate in 260 μl complete medium. On Day 1, cells were treated in duplicate with 10-point 1:3 dilution series of compound using the HP D300 Digital Dispenser (Tecan). DMSO concentrations were normalized across the plate to 0.1%. On Day 2, after 24 h of incubation at 37° C., treatment media was discarded, cells rinsed with 100 ul/well PBS and then detached using 40 ul trypsin/well for 5 min. Trypsin was neutralized with 100 ul/well PBS+20% FCS). Flow cytometry was performed on the samples using the BD FACS CANTO II (Becton Dickinson). Cell identification was then performed using forward (FSC) vs. side scatter (SSC) plots. Single cell discrimination is performed using SSC-Width (SSC-W) vs. SSC-Height (SSC-H) plots. Median GFP values for 5,000 single cells are used to determine BTK levels. Median GFP values from HEK293A-iresRFP are used as a background signal and thus defining 0% BTK signal. Median GFP values from DMSO treated HEK293A-BTK-GFP-iresRFP or HEK293A-IKZF3-GFP-iresRFP are used to define 100% BTK signal for subsequent DC50 curves (concentration at 50% BTK degradation). GFP and RFP are read in the channels called FITC and PE, respectively.
(§4) Concentration response curves plotting relative reduction of the GFP signal (measured by flow cytometry) versus 10 compound concentrations (starting concentration 10 μM, 3 fold dilution steps) of the compounds allowed generation of DC50 values.

[2] = molecular target: T2, IKZF3-GFP (Homo sapiens, UniProt Q9UKT9); assay: IKZF3-GFP protein abundance flow cytometry assay in HEK293A cells; format: cell-based; settings: 24 h, Table 1; for IKZF3 deg Amax %: % protein remaining at maximum degradation
T2 construct: gateway cloning of IKZF3 from a pENTR221-IKZF3(STOP-Leu) construct into the previously described pLenti6-DEST-GFP-Ires-RFP vector; expressed in transfected cells; host or cells: HEK293A cells (Invitrogen R70507), lentiviral transduction with pLenti6-IKZF3-GFP-Ires-RFP, blasticidin-selected
T2 sequence (Q96SW2 whole entry partner): as the sequence (Q96SW2 whole entry) above
T2 sequence (Q16531 whole entry partner): as the sequence (Q16531 whole entry partner) above
T2 sequence (Q9UKT9 whole entry): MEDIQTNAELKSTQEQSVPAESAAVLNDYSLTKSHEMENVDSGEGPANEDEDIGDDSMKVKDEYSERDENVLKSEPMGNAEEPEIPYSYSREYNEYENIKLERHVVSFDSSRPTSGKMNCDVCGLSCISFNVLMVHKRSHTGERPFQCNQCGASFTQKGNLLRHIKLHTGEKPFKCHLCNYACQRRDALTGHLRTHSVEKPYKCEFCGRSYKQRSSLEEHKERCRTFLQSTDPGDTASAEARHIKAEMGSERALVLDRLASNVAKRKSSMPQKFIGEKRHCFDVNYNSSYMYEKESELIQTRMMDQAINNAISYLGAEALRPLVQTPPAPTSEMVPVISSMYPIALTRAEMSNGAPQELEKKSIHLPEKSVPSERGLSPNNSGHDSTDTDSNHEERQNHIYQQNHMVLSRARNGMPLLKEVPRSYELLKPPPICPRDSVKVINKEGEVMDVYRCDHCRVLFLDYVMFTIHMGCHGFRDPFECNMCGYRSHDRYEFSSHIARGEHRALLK
Protocol: Compounds of the invention were tested in the following cellular assays. […] TMD8 cells are BTK dependent and OCI-LY3 cells are BTK independent.
as §1, §2, §3, §4
Data is shown in Table 2, in which, DC50 refers to the concentration at which 50% maximal degradation was observed; deg Amax is the extent of degradation and the value refers to the % protein remaining at the concentration at which maximum degradation is seen.

Row | SMILES | BTK deg Amax % [1] [%] | DC50 [1] [nM] | IKZF3 deg Amax % [2] [%] | DC50 [2] [nM]
1 | COc1ccc(C(=O)N2CCC(OCCN3CCN(Cc4ccc(-c5cc6c(-c7cc(F)cc(NC(=O)N8C[C@H](CC(C)C)[C@@H](O)C8)c7C)ncnc6[nH]5)cc4)CC3)CC2)cc1N1CCC(=O)NC1=O [Compound 2, (3R,4S)—N-(3-(6-(4-((4-(2-((1-(3-(2,4-Dioxotetrahydropyrimidin-1 (2H)-yl)-4-methoxybenzoyl)piperidin-4-yl)oxy)ethyl)piperazin-1-yl)methyl)phenyl)-7H-pyrrolo[2,3-d]pyrimidin-4-yl)-5-fluoro-2-methylphenyl)-3-hydroxy-4-isobutylpyrrolidine-1-carboxamide] | 2 | 1.4 | 101.8 | > 3300
2 | COc1ccc(C(=O)N2CCC3(CCN(Cc4ccc(-c5cc6c(-c7cc(F)cc(NC(=O)N8C[C@H](CC(C)C)[C@@H](O)C8)c7C)ncnc6[nH]5)cc4)CC3)CC2)cc1N1CCC(=O)NC1=O [Compound 6, (3R,4S)—N-(3-(6-(4-((9-(3-(2,4-Dioxotetrahydropyrimidin-1(2H)-yl)-4-methoxybenzoyl)-3,9-diazaspiro[5.5]undecan-3-yl)methyl)phenyl)-7H-pyrrolo[2,3-d]pyrimidin-4-yl)-5-fluoro-2-methylphenyl)-3-hydroxy-4-isobutylpyrrolidine-1-carboxamide] | 6.2 | 3.4 | 93.5 | > 3300
3 | COc1ccc(C(=O)N2CCC(OC3CCN(Cc4ccc(-c5cc6c(-c7cc(F)cc(NC(=O)N8C[C@H](CC(C)C)[C@@H](O)C8)c7C)ncnc6[nH]5)cc4)CC3)CC2)cc1N1CCC(=O)NC1=O [Compound 8, (3R,4S)—N-(3-(6-(4-((4-((1-(3-(2,4-Dioxotetrahydropyrimidin-1(2H)-yl)-4-methoxybenzoyl)piperidin-4-yl)oxy)piperidin-1-yl)methyl)phenyl)-7H-pyrrolo[2,3-d]pyrimidin-4-yl)-5-fluoro-2-methylphenyl)-3-hydroxy-4-isobutylpyrrolidine-1-carboxamide] | 4.5 | 1 | 107.4 | > 1000
4 | COc1ccc(C(=O)N2CCC(OC3CCN(CCc4ccc(-c5cc6c(-c7cc(F)cc(NC(=O)N8C[C@H](CC(C)C)[C@@H](O)C8)c7C)ncnc6[nH]5)cc4)CC3)CC2)cc1N1CCC(=O)NC1=O [Compound 13, (3R,4S)—N-(3-(6-(4-(2-(4-((1-(3-(2,4-Dioxotetrahydropyrimidin-1(2H)-yl)-4-methoxybenzoyl)piperidin-4-yl)oxy)piperidin-1-yl)ethyl)phenyl)-7H-pyrrolo[2,3-d]pyrimidin-4-yl)-5-fluoro-2-methylphenyl)-3-hydroxy-4-isobutylpyrrolidine-1-carboxamide] | 2.9 | 0.5 | 99.7 | > 3300
5 | COc1ccc(C(=O)N2CCC3(CCN(CCc4ccc(-c5cc6c(-c7cc(F)cc(NC(=O)N8C[C@@H](CC(C)C)[C@H](O)C8)c7C)ncnc6[nH]5)cc4)CC3)CC2)cc1N1CCC(=O)NC1=O [Compound 19, (3S,4R)—N-(3-(6-(4-(2-(9-(3-(2,4-dioxotetrahydropyrimidin-1(2H)-yl)-4-methoxybenzoyl)-3,9-diazaspiro[5.5]undecan-3-yl)ethyl)phenyl)-7H-pyrrolo[2,3-d]pyrimidin-4-yl)-5-fluoro-2-methylphenyl)-3-hydroxy-4-isobutylpyrrolidine-1-carboxamide] | 13 | 85.5 | 102.4 | > 1100

More lines, in order of falling DC50 [1], values ahead:

Row | BTK deg Amax % [1] [%] | DC50 [1] [nM] | IKZF3 deg Amax % [2] [%] | DC50 [2] [nM] | SMILES
6 | 15 | 164 | 102.7 | > 1100 | COc1ccc(C(=O)N2CCC3(CCN(Cc4ccc(-c5cc6c(-c7cc(F)cc(NC(=O)N8C[C@@H](CC(C)C)[C@H](O)C8)c7C)ncnc6[nH]5)cc4)CC3)CC2)cc1N1CCC(=O)NC1=O [Compound 1, (3S,4R)—N-(3-(6-(4-((9-(3-(2,4-Dioxotetrahydropyrimidin-1(2H)-yl)-4-methoxybenzoyl)-3,9-diazaspiro[5.5]undecan-3-yl)methyl)phenyl)-7H-pyrrolo[2,3-d]pyrimidin-4-yl)-5-fluoro-2-methylphenyl)-3-hydroxy-4-isobutylpyrrolidine-1-carboxamide]
7 | 4 | 4.9 | 103.7 | > 3300 | COc1ccc(C(=O)N2CCC3(CCN(Cc4ccc(-c5cc6c(-c7cc(F)cc(NC(=O)N8C[C@@H](CC(C)C)[C@H](O)C8)c7C)ncnc6[nH]5)cc4)CC3)CC2)cc1N1CCC(=O)NC1=O (racemic) [Compound 5, trans-rac-N-(3-(6-(4-((9-(3-(2,4-Dioxotetrahydropyrimidin-1(2H)-yl)-4-methoxybenzoyl)-3,9-diazaspiro[5.5]undecan-3-yl)methyl)phenyl)-7H-pyrrolo[2,3-d]pyrimidin-4-yl)-5-fluoro-2-methylphenyl)-3-hydroxy-4-isobutylpyrrolidine-1-carboxamide]
8 | 4 | 1.8 | 100.2 | > 5500 | COc1ccc(C(=O)N2CCC3(CCN(CCc4ccc(-c5cc6c(-c7cc(F)cc(NC(=O)N8C[C@H](CC(C)C)[C@@H](O)C8)c7C)ncnc6[nH]5)cc4)CC3)CC2)cc1N1CCC(=O)NC1=O [Compound 15, (3R,4S)—N-(3-(6-(4-(2-(9-(3-(2,4-Dioxotetrahydropyrimidin-1(2H)-yl)-4-methoxybenzoyl)-3,9-diazaspiro[5.5]undecan-3-yl)ethyl)phenyl)-7H-pyrrolo[2,3-d]pyrimidin-4-yl)-5-fluoro-2-methylphenyl)-3-hydroxy-4-isobutylpyrrolidine-1-carboxamide]
9 | 4.3 | 0.7 | 104.0 | > 1100 | COc1ccc(C(=O)N2CCC(CN3CCN(Cc4ccc(-c5cc6c(-c7cc(F)cc(NC(=O)N8C[C@H](CC(C)C)[C@@H](O)C8)c7C)ncnc6[nH]5)cc4)CC3)CC2)cc1N1CCC(=O)NC1=O [Compound 12, (3R,4S)—N-(3-(6-(4-((4-((1-(3-(2,4-Dioxotetrahydropyrimidin-1(2H)-yl)-4-methoxybenzoyl)piperidin-4-yl)methyl)piperazin-1-yl)methyl)phenyl)-7H-pyrrolo[2,3-d]pyrimidin-4-yl)-5-fluoro-2-methylphenyl)-3-hydroxy-4-isobutylpyrrolidine-1-carboxamide]
10 | 2.3 | 0.6 | 96.7 | > 10000 | COc1ccc(C(=O)N2CCC(CN3CCC(Oc4ccc(-c5cc6c(-c7cc(F)cc(NC(=O)N8C[C@H](CC(C)C)[C@@H](O)C8)c7C)ncnc6[nH]5)cc4)CC3)CC2)cc1N1CCC(=O)NC1=O [Compound 11, (3R,4S)—N-(3-(6-(4-((1-((1-(3-(2,4-Dioxotetrahydropyrimidin-1 (2H)-yl)-4-methoxybenzoyl)piperidin-4-yl)methyl)piperidin-4-yl)oxy)phenyl)-7H-pyrrolo[2,3-d]pyrimidin-4-yl)-5-fluoro-2-methylphenyl)-3-hydroxy-4-isobutylpyrrolidine-1-carboxamide]
